Assay results reported in EP4700018A1, “NAV1.8 INHIBITORS, PREPARATION METHOD THEREFOR AND USE THEREOF” (Shanghai Institute of Materia Medica, Chinese Academy of …, priority 2023, dated 2024).
Where two headings read alike, the source gives them in different places.

Experiments:
[1] = biological target: human Nav1.8 sodium channel (Homo sapiens, UniProt Q9Y5Y9); experiment: Blocking activity on sodium channel 1.8 (Nav1.8), whole-cell manual patch clamp; type: cell-based; details: for inhibition at 0.001 µM: read-out: inhibition Percent @1 nM, 1 nM compound; for inhibition at 0.01 µM: read-out: inhibition Percent @10 nM, 10 nM compound
Chain of human Nav1.8 sodium channel (Q9Y5Y9 whole entry): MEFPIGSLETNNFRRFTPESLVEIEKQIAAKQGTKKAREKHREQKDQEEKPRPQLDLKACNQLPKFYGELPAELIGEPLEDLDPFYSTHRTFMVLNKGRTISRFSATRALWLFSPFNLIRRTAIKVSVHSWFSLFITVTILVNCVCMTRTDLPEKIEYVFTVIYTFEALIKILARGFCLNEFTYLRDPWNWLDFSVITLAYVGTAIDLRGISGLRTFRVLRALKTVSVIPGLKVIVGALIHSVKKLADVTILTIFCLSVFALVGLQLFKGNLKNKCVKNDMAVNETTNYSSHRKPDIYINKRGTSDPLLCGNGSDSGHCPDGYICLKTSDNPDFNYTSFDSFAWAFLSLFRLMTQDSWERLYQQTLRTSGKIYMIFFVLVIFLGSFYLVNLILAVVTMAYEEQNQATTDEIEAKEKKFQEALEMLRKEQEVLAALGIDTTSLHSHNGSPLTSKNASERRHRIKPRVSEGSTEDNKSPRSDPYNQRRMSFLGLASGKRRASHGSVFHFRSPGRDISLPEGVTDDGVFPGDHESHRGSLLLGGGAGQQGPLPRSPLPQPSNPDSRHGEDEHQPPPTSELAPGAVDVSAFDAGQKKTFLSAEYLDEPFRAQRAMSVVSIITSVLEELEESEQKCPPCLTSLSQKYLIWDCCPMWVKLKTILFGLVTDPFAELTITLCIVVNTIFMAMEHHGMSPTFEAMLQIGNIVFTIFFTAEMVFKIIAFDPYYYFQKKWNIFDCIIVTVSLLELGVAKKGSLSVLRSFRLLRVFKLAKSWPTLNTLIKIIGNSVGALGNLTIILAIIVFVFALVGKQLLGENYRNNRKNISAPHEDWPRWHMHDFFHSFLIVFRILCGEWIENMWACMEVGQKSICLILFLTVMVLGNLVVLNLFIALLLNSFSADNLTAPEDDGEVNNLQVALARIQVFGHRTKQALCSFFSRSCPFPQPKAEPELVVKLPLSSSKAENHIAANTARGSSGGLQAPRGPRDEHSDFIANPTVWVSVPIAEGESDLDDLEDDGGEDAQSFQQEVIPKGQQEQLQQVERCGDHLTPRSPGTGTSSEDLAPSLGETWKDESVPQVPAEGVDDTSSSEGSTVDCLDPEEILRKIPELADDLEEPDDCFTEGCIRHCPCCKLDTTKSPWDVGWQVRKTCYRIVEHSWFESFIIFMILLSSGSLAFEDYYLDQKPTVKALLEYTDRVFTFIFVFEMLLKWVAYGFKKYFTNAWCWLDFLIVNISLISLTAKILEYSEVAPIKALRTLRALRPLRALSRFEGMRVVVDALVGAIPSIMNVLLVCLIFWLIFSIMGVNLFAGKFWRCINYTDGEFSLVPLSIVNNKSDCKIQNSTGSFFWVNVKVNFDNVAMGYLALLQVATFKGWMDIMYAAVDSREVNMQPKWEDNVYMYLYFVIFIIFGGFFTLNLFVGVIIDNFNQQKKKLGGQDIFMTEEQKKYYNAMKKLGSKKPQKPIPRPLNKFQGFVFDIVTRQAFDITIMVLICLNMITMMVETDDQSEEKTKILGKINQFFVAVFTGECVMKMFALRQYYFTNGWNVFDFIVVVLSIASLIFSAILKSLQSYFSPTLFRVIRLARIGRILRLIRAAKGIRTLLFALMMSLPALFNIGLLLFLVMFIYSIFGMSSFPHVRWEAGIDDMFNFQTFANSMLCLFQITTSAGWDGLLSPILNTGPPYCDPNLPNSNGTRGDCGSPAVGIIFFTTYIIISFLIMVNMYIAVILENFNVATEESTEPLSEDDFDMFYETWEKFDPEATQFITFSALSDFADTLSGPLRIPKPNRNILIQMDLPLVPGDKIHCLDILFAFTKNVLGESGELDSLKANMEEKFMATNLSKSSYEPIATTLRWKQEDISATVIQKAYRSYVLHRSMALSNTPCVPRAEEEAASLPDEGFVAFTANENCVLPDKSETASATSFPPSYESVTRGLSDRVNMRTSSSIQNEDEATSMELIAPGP

[2] = In vivo pharmacokinetics in rats, single intravenous injection or oral gavage; details: male, SD, plasma, Rat; for Vd: read-out: Vss
Procedure: The in vivo pharmacokinetics in rats were evaluated via a single intravenous injection or oral gavage administration in this test example. • 1. Test Methods and Conditions: Male SD rats were fasted overnight and administered a single intravenous dose of 2 mg/kg or 1 mg/kg of the test compound (solvent for Intravenous administration was 5% DMSO/10% Solutol® HS 15/10% EtOH/75% saline, with a dosing volume of 5 mL/kg) and an oral gavage dose of 10 mg/kg or 5 mg/kg of the test compound (solvent for administration was 0.5% CMC-Na, with a dosing volume of 10 mL/kg), respectively. • 2. Sampling Information: Blood samples (0.2 mL) were collected from the retroorbital venous plexus at the designated time points: 0.25, 0.5, 1.0, 2.0, 3.0, 4.0, 6.0, 8.0, and 24 hours before and after dosing (a 5 min sampling point was added for the intravenous administration group), respectively. The samples were placed in EDTA-K2 tubes and centrifuged at 11,000 rpm for 5 minutes. Plasma was separated and frozen at -20°C. • 3. Assay Information: LC/MS/MS was used to determine the concentration of the parent drug in rat/mouse plasma following intravenous and oral gavage administration of the test compound. Pharmacokinetic parameters in rat/mouse plasma were calculated for both administration routes, and the bioavailability of each compound in rats was also calculated. Table 5: Intravenous Pharmacokinetic Information of Representative Compounds

[3] = intravenous, single dose 2 mg/kg or 1 mg/kg (figure not given)

Compound: CC(C)c1nc(N2CCCC(F)(F)CC2)c(C(=O)Nc2ccc(F)c(C(N)=NO)c2)cc1Cl [Compound I-24, 5-chloro-2-(4,4-difluoroazepan-1-yl)-N-(4-fluoro-3-(N'-hydroxyamidino)phenyl)-6-isop ropylnicotinamide]
- inhibition at 0.001 µM [1]: 56%
- AUC(0-t) [2, 3]: 1260 ng·h/mL
- clearance [2, 3]: 12.8 mL/min/kg
- half-life [2, 3]: 2 h
- Vd [2, 3]: 1.38 L/kg
- AUC(0-t) ([2]; oral gavage, 5mg/kg): 1950 ng·h/mL
- Cmax ([2]; oral gavage, 5mg/kg): 244 ng/mL
- Tmax ([2]; oral gavage, 5mg/kg): 2 h
- half-life ([2]; oral gavage, 5mg/kg): 2.73 h
- bioavailability ([2]; oral gavage, 5mg/kg): 30.9%

Compound: COc1c([C@H]2[C@H](C(=O)Nc3ccnc(C(N)=O)c3)O[C@@](C)(C(F)(F)F)[C@H]2C)ccc(F)c1F [VX-548, reference compound]
- IC50 [1]: 0.34 ± 0.04 nM
- AUC(0-t) [2, 3]: 804 ng·h/mL
- clearance [2, 3]: 20.7 mL/min/kg
- half-life [2, 3]: 0.67 h
- Vd [2, 3]: 0.92 L/kg
- AUC(0-t) ([2]; oral gavage, 5mg/kg): 518 ng·h/mL
- Cmax ([2]; oral gavage, 5mg/kg): 157 ng/mL
- Tmax ([2]; oral gavage, 5mg/kg): 0.5 h
- half-life ([2]; oral gavage, 5mg/kg): 2.68 h
- bioavailability ([2]; oral gavage, 5mg/kg): 14%

Compound: NC(=NO)c1cc(NC(=O)c2cc(Cl)c(C(F)(F)F)nc2N2CCCC(F)(F)CC2)ccc1F [Compound I-36, 5-chloro-2-(4,4-difluoroazepan-1-yl)-N-(4-fluoro-3-(N'-hydroxyamidino)phenyl)-6-(trifluoromethyl)nicotinamide]
- inhibition at 0.001 µM [1]: 50%
- AUC(0-t) [2, 3]: 4440 ng·h/mL
- clearance [2, 3]: 3.91 mL/min/kg
- half-life [2, 3]: 3.28 h
- Vd [2, 3]: 0.823 L/kg
- AUC(0-t) ([2]; oral gavage, 5mg/kg): 4410 ng·h/mL
- Cmax ([2]; oral gavage, 5mg/kg): 386 ng/mL
- Tmax ([2]; oral gavage, 5mg/kg): 4.3 h
- half-life ([2]; oral gavage, 5mg/kg): 3.15 h
- bioavailability ([2]; oral gavage, 5mg/kg): 38.9%

Compound: Cc1nc(N2CCCC(F)(F)CC2)c(C(=O)Nc2ccc(F)c(C(N)=NO)c2)cc1Cl [Compound I-1, 5-chloro-2-(4,4-difluoroazepan-1-yl)-N-(4-fluoro-3-(N'-hydroxyamidino)phenyl)-6-met hylnicotinamide]
- inhibition at 0.001 µM [1]: 71%
- AUC(0-t) [2, 3]: 1290 ng·h/mL
- clearance [2, 3]: 29.6 mL/min/kg
- half-life [2, 3]: 0.723 h
- Vd [2, 3]: 0.638 L/kg
- AUC(0-t) ([2]; oral gavage, 10mg/kg): 546 ng·h/mL
- Cmax ([2]; oral gavage, 10mg/kg): 433 ng/mL
- Tmax ([2]; oral gavage, 10mg/kg): 0.5 h
- half-life ([2]; oral gavage, 10mg/kg): 1.49 h
- bioavailability ([2]; oral gavage, 10mg/kg): 8.7%

Compound: [2H]Cc1nc(N2CCCC(F)(F)CC2)c(C(=O)Nc2ccc(F)c(C(N)=NO)c2)cc1Cl [Compound I-42, 5-chloro-2-(4,4-difluoroazepan-1-yl)-N-(4-fluoro-3-(N'-hydroxyamidino)phenyl)-6-deu teromethylnicotinamide]
- inhibition at 0.001 µM [1]: 65%

Compound: Cc1nc(N2CCC(F)(F)C(C)C2)c(C(=O)Nc2ccc(F)c(C(N)=NO)c2)cc1Cl (single isomer, unassigned) [Compound I-41-P1, 5-chloro-2-(4,4-difluoro-3-methylpiperidin-1-yl)-N-(4-fluoro-3-(N'-hydroxyamidino)phenyl)-6-(methyl)nicotinamide]
- inhibition at 0.001 µM [1]: 38%

Compound: NC(=NO)c1cccc(NC(=O)c2c(N3CCCC(F)(F)CC3)ccc(Cl)c2C(F)(F)F)c1 [Compound I-49, 5-chloro-2-(4,4-difluoroazepan-1-yl)-N-(3-(N'-hydroxyamidino)phenyl)-6-(trifluoromethyl)benzamide]
- inhibition at 0.01 µM [1]: 77%

Compound: Cc1nc(N2CCCC(F)(F)CC2)c(C(=O)Nc2ccc(F)c(C(=O)O)c2)cc1Cl [Compound I7-b, 5-(5-chloro-2-(4,4-difluoroazepan-1-yl)-6-methylnicotinamido)-2-fluorobenzoic acid]
- inhibition at 0.03 µM ([1]; read-out: inhibition Percent @30 nM, 30 nM compound): 33%

Compound: Cc1ccc(NC(=O)c2cc(Cl)c(C)nc2N2CCCC(F)(F)CC2)cc1C(=N)N [Compound I-8, N-(3-amidino-4-methylphenyl)-5-chloro-2-(4,4-difluoroazepan-1-yl)-6-methylnicotinamide]
- inhibition at 0.001 µM [1]: 51%

Compound: NC(=NO)c1cccc(NC(=O)c2cc(Cl)c(C(F)(F)F)cc2N2CCCC(F)(F)CC2)c1 [Compound I-48, 5-chloro-2-(4,4-difluoroazepan-1-yl)-N-(3-(N'-hydroxyamidino)phenyl)-4-trifluoromet hylbenzamide]
- inhibition at 0.01 µM [1]: 77%

Compound: NC(=NO)c1cc(NC(=O)c2cc(Cl)c(C(F)(F)F)cc2N2CCCC(F)(F)CC2)ccc1F [Compound I-33, 5-chloro-2-(4,4-difluoroazepan-1-yl)-N-(4-fluoro-3-(N'-hydroxyamidino)phenyl)-4-(trifluoromethyl)benzamide]
- inhibition at 0.001 µM [1]: 86%
- AUC(0-t) [2, 3]: 2270 ng·h/mL
- clearance [2, 3]: 7.44 mL/min/kg
- half-life [2, 3]: 2.67 h
- Vd [2, 3]: 1.16 L/kg
- AUC(0-t) ([2]; oral gavage, 5mg/kg): 8640 ng·h/mL
- Cmax ([2]; oral gavage, 5mg/kg): 623 ng/mL
- Tmax ([2]; oral gavage, 5mg/kg): 6 h
- half-life ([2]; oral gavage, 5mg/kg): 5.12 h
- bioavailability ([2]; oral gavage, 5mg/kg): 38.9%

Compound: Cc1nc(N2CCCC(F)(F)CC2)c(C(=O)Nc2cccc(C(=N)N)c2)cc1Cl [Compound I-12, N-(3-amidinophenyl)-5-chloro-2-(4,4-difluoroazepan-1-yl)-6-methylnicotinamide]
- IC50 ([1]; Nav1.8 channel current, HEK293 cells stably expressing human Nav1.8, clamped at -60 mV, mean ± SEM, read-out: IC50): 0.26 ± 0.06 nM
- inhibition at 0.001 µM [1]: 73%

Compound: NC(=NO)c1cc(NC(=O)c2c(N3CCCC(F)(F)CC3)ccc(C(F)(F)F)c2Cl)ccc1F [Compound I-32, 2-chloro-6-(4,4-difluoroazepan-1-yl)-N-(4-fluoro-3-(N'-hydroxyamidino)phenyl)-3-(trifluoromethyl)benzamide]
- inhibition at 0.001 µM [1]: 50%

Compound: Cc1nc(N2CCCC(F)(F)CC2)c(C(=O)Nc2cccc(C(N)=NO)c2)cc1Cl [Compound I-11, 5-chloro-2-(4,4-difluoroazepan-1-yl)-N-(3-(N'-hydroxyamidino)phenyl)-6-methylnicoti namide]
- inhibition at 0.001 µM [1]: 90%
